“And” between values parts separate entries of the source, which are not always exact repeats. Identical values can stand only once. Toxic doses and inconclusive results are not listed. How the source made its calls: active means survival T/C of 150% or more; inactive means T/C below 125% in these data. Peptide text beside a SMILES is read from it. * marks the point of attachment. Boc = CC(C)(C)OC(=O)*
Test system: P388 leukemia ip, CD2F1 mice, survival T/C
Assay: NCI In Vivo Anticancer Drug Screen. Data for tumor model P388 Leukemia (intraperitoneal) in CD2F1 (CDF1) mice
Conditions: endpoint: median survival time, higher = longer survival
Procedure, shortened: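 Mice carrying the transplanted tumor received test compound or vehicle. Survival was recorded in each group, and the value is the treated-group measurement divided by that of the vehicle-treated control group.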

[1] = dose: 100.0 mg/kg/injection, schedule: Q04DX003 (ip), vehicle: saline with Tween-80
[2] = dose: 200.0 mg/kg/injection, schedule: Q04DX003 (ip), vehicle: saline with Tween-80
[3] = dose: 60.0 mg/kg/injection, schedule: Q01DX005 (ip), vehicle: Klucel (hydroxypropylcellulose) (HPC)
[4] = dose: 120.0 mg/kg/injection, schedule: Q01DX005 (ip), vehicle: Klucel (hydroxypropylcellulose) (HPC)
[5] = dose: 240.0 mg/kg/injection, schedule: Q01DX005 (ip), vehicle: Klucel (hydroxypropylcellulose) (HPC)
[6] = dose: 50.0 mg/kg/injection, schedule: Q01DX005 (ip), vehicle: Klucel (hydroxypropylcellulose) (HPC)
[7] = dose: 100.0 mg/kg/injection, schedule: Q01DX005 (ip), vehicle: Klucel (hydroxypropylcellulose) (HPC)
[8] = dose: 200.0 mg/kg/injection, schedule: Q01DX005 (ip), vehicle: Klucel (hydroxypropylcellulose) (HPC)
[9] = dose: 100.0 mg/kg/injection, schedule: Q01DX009 (ip), vehicle: saline with Tween-80
[10] = dose: 200.0 mg/kg/injection, schedule: Q01DX009 (ip), vehicle: saline with Tween-80
[11] = dose: 400.0 mg/kg/injection, schedule: Q01DX009 (ip), vehicle: saline with Tween-80
[12] = dose: 50.0 mg/kg/injection, schedule: Q01DX009 (ip), vehicle: Klucel (hydroxypropylcellulose) (HPC)
[13] = dose: 100.0 mg/kg/injection, schedule: Q01DX009 (ip), vehicle: Klucel (hydroxypropylcellulose) (HPC)
[14] = dose: 200.0 mg/kg/injection, schedule: Q01DX009 (ip), vehicle: Klucel (hydroxypropylcellulose) (HPC)
[15] = dose: 100.0 mg/kg/injection, schedule: Q01DX009 (ip), vehicle: saline
[16] = dose: 100.0 mg/kg/injection, schedule: Q04DX002 (ip), vehicle: saline with Tween-80
[17] = dose: 50.0 mg/kg/injection, schedule: Q01DX009 (ip), vehicle: saline with Tween-80
[18] = dose: 50.0 mg/kg/injection, schedule: Q01DX005 (ip), vehicle: saline with Tween-80
[19] = dose: 100.0 mg/kg/injection, schedule: Q01DX005 (ip), vehicle: saline with Tween-80
[20] = dose: 200.0 mg/kg/injection, schedule: Q01DX005 (ip), vehicle: saline with Tween-80

Measured: T/C

C=C(C)CSc1ncnc2nc[nH]c12
inactive: [1] 104 % of control | [2] 100 % of control | dose: 400.0 mg/kg/injection, schedule: Q04DX003 (ip), vehicle: saline with Tween-80 100 % of control

O=C(O)/C=C\C(=O)N[C@H]1CCSC1=O
inactive: [3] 94 % of control | [4] 94 % of control | [5] 90 % of control

CSCCC(NC(=O)OC(C)(C)C)C(=O)NC(CCSC)C(=O)NC(C)C(=O)O (stereo not drawn) (Boc-Met-Met-Ala-OH; configuration not given here)
inactive: [6] 98 % of control | [7] 102 % of control | [8] 102 % of control

COc1ccc(Cc2ccccc2CO)c2ccccc12
inactive: dose: 100.0 mg/kg/injection, schedule: Q01DX001 (ip), vehicle: Klucel (hydroxypropylcellulose) (HPC) 100 % of control | dose: 200.0 mg/kg/injection, schedule: Q01DX001 (ip), vehicle: Klucel (hydroxypropylcellulose) (HPC) 100 % of control | dose: 400.0 mg/kg/injection, schedule: Q01DX001 (ip), vehicle: Klucel (hydroxypropylcellulose) (HPC) 100 % of control

CC(C)(Cl)C1OC(C(C)(C)Cl)OC(C(C)(C)Cl)O1 (configuration not stated)
inactive: [9] 91 % of control | [10] 94 % of control | [11] 103 % of control

c1ccc(Nc2ncnc3ccccc23)cc1
inactive: [12] 102 % of control | [13] 102 % of control | [14] 112 % of control

CCCCCCCCCCCCCCCCN1CCSCC1
inactive: dose: 12.5 mg/kg/injection, schedule: Q01DX009 (ip), vehicle: saline 91 % of control | dose: 25.0 mg/kg/injection, schedule: Q01DX009 (ip), vehicle: saline 97 % of control | dose: 50.0 mg/kg/injection, schedule: Q01DX009 (ip), vehicle: saline 98 % of control and 100 % of control | [15] 92 % of control

N=C(N)N1CCNc2ccc(Cl)cc2C1
inactive: [16] 96 % of control | dose: 200.0 mg/kg/injection, schedule: Q04DX002 (ip), vehicle: saline with Tween-80 91 % of control

CSCNc1ncnc2c1ncn2C1OC(CO)C(O)C1O (configuration not stated)
inactive: [16] 120 % of control

Cc1ncc([N+](=O)[O-])n1CCO
inactive: dose: 16.0 mg/kg/injection, schedule: Q01DX009 (ip), vehicle: saline with Tween-80 112 % of control | dose: 32.0 mg/kg/injection, schedule: Q01DX009 (ip), vehicle: saline with Tween-80 108 % of control | [17] 98 % of control | dose: 64.0 mg/kg/injection, schedule: Q01DX009 (ip), vehicle: saline with Tween-80 102 % of control and 108 % of control | [9] 118 % of control | dose: 128.0 mg/kg/injection, schedule: Q01DX009 (ip), vehicle: saline with Tween-80 100 % of control and 109 % of control | [10] 107 % of control | dose: 250.0 mg/kg/injection, schedule: Q01DX001 (ip), vehicle: saline with Tween-80 103 % of control | dose: 256.0 mg/kg/injection, schedule: Q01DX009 (ip), vehicle: saline with Tween-80 108 % of control | dose: 360.0 mg/kg/injection, schedule: Q01DX001 (ip), vehicle: saline with Tween-80 100 % of control and 103 % of control | [11] 111 % of control | dose: 500.0 mg/kg/injection, schedule: Q01DX001 (ip), vehicle: saline with Tween-80 103 % of control | dose: 512.0 mg/kg/injection, schedule: Q01DX009 (ip), vehicle: saline with Tween-80 100 % of control | dose: 600.0 mg/kg/injection, schedule: Q01DX001 (ip), vehicle: saline with Tween-80 100 % of control and 97 % of control | dose: 1000.0 mg/kg/injection, schedule: Q01DX001 (ip), vehicle: saline with Tween-80 102 % of control and 104 % of control and 101 % of control | dose: 2000.0 mg/kg/injection, schedule: Q01DX001 (ip), vehicle: saline with Tween-80 99 % of control

O=C1c2cc3ccccc3cc2NC(O)c2cccn21 (configuration not stated)
inactive: dose: 0.1 mg/kg/injection, schedule: Q01DX005 (ip), vehicle: water 96 % of control | dose: 0.2 mg/kg/injection, schedule: Q01DX005 (ip), vehicle: water 91 % of control | dose: 0.4 mg/kg/injection, schedule: Q01DX005 (ip), vehicle: water 100 % of control | dose: 0.8 mg/kg/injection, schedule: Q01DX005 (ip), vehicle: water 107 % of control | dose: 1.6 mg/kg/injection, schedule: Q01DX005 (ip), vehicle: water 116 % of control | dose: 5.0 mg/kg/injection, schedule: Q01DX005 (ip), vehicle: distilled water + Tween-80 100 % of control | dose: 10.0 mg/kg/injection, schedule: Q01DX005 (ip), vehicle: distilled water + Tween-80 107 % of control | dose: 20.0 mg/kg/injection, schedule: Q01DX005 (ip), vehicle: distilled water + Tween-80 100 % of control | dose: 40.0 mg/kg/injection, schedule: Q01DX005 (ip), vehicle: distilled water + Tween-80 99 % of control | dose: 80.0 mg/kg/injection, schedule: Q01DX005 (ip), vehicle: distilled water + Tween-80 101 % of control

COc1ccc(CCN(CCC#N)C(=O)C(Cl)Cl)cc1
inactive: [6] 97 % of control | [7] 97 % of control | [8] 99 % of control

C[Si]1(C)N[Si](C)(C)N([Si](C)(C)C)[Si](C)(C)N1
inactive: [18] 93 % of control | [19] 101 % of control | [20] 109 % of control

NC(=O)CC(N)C(=O)O.[Cl-].[Cl-].[Cl-].[Cl-].[Pt+2] (configuration not stated)
inactive: dose: 1.56 mg/kg/injection, schedule: Q01DX009 (ip), vehicle: water 99 % of control | dose: 3.13 mg/kg/injection, schedule: Q01DX009 (ip), vehicle: water 100 % of control | dose: 6.25 mg/kg/injection, schedule: Q01DX009 (ip), vehicle: water 100 % of control

N#CC1C(=O)NC(=O)C(C#N)C12CCCCC2 (configuration not stated)
inactive: dose: 50.0 mg/kg/injection, schedule: Q04DX003 (ip), vehicle: saline with Tween-80 105 % of control | [1] 100 % of control | [2] 105 % of control

O=c1[nH]c2ccc(Cl)cc2c2ccccc12
inactive: [12] 101 % of control | [13] 100 % of control | [14] 105 % of control

Oc1ccccc1C1=NC(c2ccccc2)NC(c2ccccc2)C1 (configuration not stated)
inactive: [17] 88 % of control | [9] 93 % of control

CCN(CCO)CC(O)Cn1cnc2ncnc(N)c21 (configuration not stated) (tested in a mixture with another compound)
inactive: [3] 97 % of control | [4] 94 % of control | [5] 95 % of control

O=C(Nc1ccc(C(=O)O)c(O)c1)Nc1ccccc1C(F)(F)F
inactive: dose: 60.0 mg/kg/injection, schedule: Q01DX005 (ip), vehicle: saline with Tween-80 103 % of control | dose: 120.0 mg/kg/injection, schedule: Q01DX005 (ip), vehicle: saline with Tween-80 90 % of control | dose: 240.0 mg/kg/injection, schedule: Q01DX005 (ip), vehicle: saline with Tween-80 103 % of control

CCN(CC)c1ccc(N=Nc2ccc(C)cc2)cc1
inactive: [15] 89 % of control | dose: 200.0 mg/kg/injection, schedule: Q01DX009 (ip), vehicle: saline 103 % of control | dose: 400.0 mg/kg/injection, schedule: Q01DX009 (ip), vehicle: saline 90 % of control

CCCCCc1cc(O)c2c(c1)OC(C)(CCC=C(C)C)C=C2 (configuration not stated)
inactive: dose: 6.25 mg/kg/injection, schedule: Q01DX009 (ip), vehicle: saline with Tween-80 100 % of control | dose: 12.5 mg/kg/injection, schedule: Q01DX009 (ip), vehicle: saline with Tween-80 110 % of control | dose: 25.0 mg/kg/injection, schedule: Q01DX009 (ip), vehicle: saline with Tween-80 109 % of control | [17] 112 % of control

CN1CCC2CC1Cc1ccc(NS(C)(=O)=O)cc12 (configuration not stated)
inactive: [18] 98 % of control | [19] 100 % of control | [20] 91 % of control

CCCn1c2ccccc2c2ccccc21
inactive: dose: 100.0 mg/kg/injection, schedule: Q04DX003 (ip), vehicle: Klucel (hydroxypropylcellulose) (HPC) 104 % of control | dose: 200.0 mg/kg/injection, schedule: Q04DX003 (ip), vehicle: Klucel (hydroxypropylcellulose) (HPC) 104 % of control | dose: 400.0 mg/kg/injection, schedule: Q04DX003 (ip), vehicle: Klucel (hydroxypropylcellulose) (HPC) 100 % of control
